{"source": "patent US20100144737A1", "about": "“METHODS FOR INHIBITING T HELPER CELL DIFFERENTIATION” (FibroGen, Inc., priority 2008, published 2010)", "key": {"[1]": {"test_system": "activated T cells (PMBCs)", "assay": "IFN-γ and TNF-α levels ex vivo following T cell activation in vivo (peptidoglycan-polysaccharide polymer injection)", "parameters": "species or system Lewis rats", "conditions": "40 mg/kg oral gavage, days 28-44; PMBCs isolated day 44, anti-CD3, 72 h, ELISA", "procedure": "The effect of methods and compounds of the present invention on INF-γ and TNF-α expression following in vivo activation was examined as follows. In these experiments, in vivo T cell activation was first induced by eliciting an inflammatory reaction in rats by injection of peptidoglycan-polysaccharide polymers. An exemplary compound of the present invention was then administered to the animals. T cells were then isolated from the blood of the animals and analyzed ex vivo for IFN-γ and TNF-α secretion. Female Lewis rats (150-200 gm; Harlan, Indianapolis, Ind.) were injected intra-peritoneal with peptidoglycan-polysaccharide polymers (15 μg/gm body weight, Lee Laboratories, Grayson, Ga.). Animals were administered Compound A (40 mg/kg) via oral gavage on days 28, 30, 32, 35, 37, 39, 42, and 44 following peptidoglycan-polysaccharide polymer injection. Peripheral blood mononuclear cells (PMBCs) were isolated from the blood of the animals by Ficol gradient (BD Vacutainer CPT tubes) on day 44. Equal numbers of PMBCs (50,000 cells/well) were plated on culture dishes coated with anti-CD3 antibodies in RPMI-1640 media containing 10% serum, and the cells were cultured for 72 h. Supernatants from the cell cultures were tested for IFN-γ and TNF-α levels using commercially-available ELISA assays (R&D)."}, "naïve T helper cells [2]": {"test_system": "naïve T helper cells", "assay": "Th1 cell differentiation: IFN-γ secretion after second and third TCR stimulation following washout", "assay_type": "cell-based, human", "procedure": "The effectiveness of compounds of the present invention at reducing Th1 differentiation was examined as follows. Th1 differentiation was induced by culturing anti-CD3 stimulated T cells in the presence of exogenous IL-12. Human cord blood naive T helper cells (AllCells LLC, Emeryville, Calif.) were stimulated (i.e., T cell receptor (TCR) stimulation) by seeding into 96-well culture dishes coated with 5 μg/ml anti-CD3 antibody (clone UCHT1, R&D Systems, Minneapolis, Minn.), and 5 μg/ml anti-CD28 antibody (clone ANC28.1/D10, Ancell Corporation, Bayport, Minn.), and cultured at 37° C., 5% CO2 in RPMI-1640 (Mediatech Inc., Hemdon, Va.) containing 1% FBS, 1 U/ml penicillin-1 μg/ml streptomycin (Invitrogen Corporation, Carlsbad, Calif.), and 50 U/ml IL-2 (Roche Diagnostics Corporation, Indianapolis, Ind.). At time of seeding, cells were cultured with media alone or with media containing 2 ng/ml IL-12 and 10 μg/ml anti-IL-4 to induce Th1 cell differentiation. […]\nThe cells were then collected, washed twice with RPMI-1640 media containing 1% FBS, and counted before equal numbers of cells per well were re-stimulated (second T cell receptor (TCR) stimulation following washout of all prior treatments) by re-seeding the cells into 96-well culture dishes coated with 5 μg/ml anti-CD3 antibody and 5 μg/ml anti-CD28 antibody. […] After 24 hours the conditioned media from the cells was collected and analyzed for IFN-γ levels using a MS2400 Tissue Culture Kit (MesoScale Technologies, Gaithersburg, Md.) according to the manufacturer's instructions.\nThirteen days after the second TCR stimulation described above, the cells were collected, washed twice with RPMI-1640 media containing 1% FBS, and counted before equal numbers of cells per well were stimulated a third time (third TCR stimulation) by re-seeding into 96-well culture dishes coated with 5 μg/ml anti-CD3 antibody and 5 μg/ml anti-CD28 antibody. […]\nIn another series of experiments, the effectiveness of compounds of the present invention at reducing Th1 differentiation was determined. […]"}, "naïve T helper cells [3]": {"test_system": "naïve T helper cells", "assay": "T helper cell number and viability (Guava ViaCount)", "assay_type": "cell-based, human", "conditions": "day 7", "procedure": "To examine the effect of compounds and methods of the present invention on T helper cell number and viability, the following studies were performed. Human cord blood naive T helper cells (AllCells LLC, Emeryville, Calif.) were stimulated (i.e., T cell receptor (TCR) stimulation) by seeding into 96-well culture dishes coated with 5 μg/ml anti-CD3 antibody (clone UCHT1, R&D Systems, Minneapolis, Minn.), and 5 μg/ml anti-CD28 antibody (clone ANC28.1/D10, Ancell Corporation, Bayport, Minn.), and cultured at 37° C, 5% CO2 in RPMI-1640 (Mediatech Inc., Herndon, Va.) containing 1% FBS, 1 U/ml penicillin-1 μg/ml streptomycin (invitrogen Corporation, Carlsbad, Calif.), and 50 U/ml IL-2 (Roche Diagnostics Corporation, Indianapolis, Ind.). […] The T helper cells were then collected and cell number and cell viability were analyzed using Guava ViaCount reagents and the Guava PCA System (Guava Technologies, Hayward, Calif.).\nIn another set of experiments, the effect of compounds and methods of the present invention on T helper cell number and viability was determined. […] The T helper cells were then collected and cell number and cell viability were analyzed using Guava ViaCount reagents and the Guava PCA System (Guava Technologies, Hayward, Calif.)."}}}
{"smiles": "Cc1nc(C(=O)NCC(=O)O)c(O)c2ccc(Oc3ccccc3)cc12", "note": "[Compound A, [(4-Hydroxy-1-methyl-7-phenoxy-isoquinoline-3-carbonyl)-amino]-acetic acid]", "values": [{"measurement": "IFN-γ secretion from the activated T cells, measured ex vivo", "setting": "[1]", "value": "effective at decreasing"}, {"measurement": "TNF-α secretion from the activated T cells, measured ex vivo", "setting": "[1]", "value": "effective at decreasing"}, {"measurement": "IFN-γ secretion following the second TCR stimulation", "setting": "naïve T helper cells [2]; compound present only during first TCR stimulation (seven days) with IL-12, 24 hours after re-stimulation", "value": "reduced IFN-γ secretion"}, {"measurement": "IFN-γ secretion after a third TCR stimulation", "setting": "naïve T helper cells [2]; compound present only during first TCR stimulation with IL-12, thirteen days after the second stimulation, 24 hours", "value": "decreased IFN-γ secretion"}, {"measurement": "percent of viable T helper cells", "setting": "naïve T helper cells [3]", "value": "did not decrease"}, {"measurement": "total number of viable T helper cells", "setting": "naïve T helper cells [3]", "value": "did not decrease"}]}
